In US6479546B1, “Allosteric inhibitors of lipoxygenase” (The Regents of the University of California, priority 2000, dated 2002):
Where a name gives a salt, the structure may show the parent alone. Read-outs that look alike come from different tables or passages of the source. Each block holds one compound with its values, some of them ahead of it.

Experiments:
SLO-1 [1] = molecular target: T1, SLO-1 (Glycine max, UniProt P08170); test: Kinetic isotope effect (KIE) titration, SLO-1; type: biochemical, soybean; settings: for Kd: SLO-1, 5 μM LA/D-LA, pH 9.2, read-out: KD from hyperbolic fit of KIE
T1 construct: made in house
T1 sequence (P08170 1-839): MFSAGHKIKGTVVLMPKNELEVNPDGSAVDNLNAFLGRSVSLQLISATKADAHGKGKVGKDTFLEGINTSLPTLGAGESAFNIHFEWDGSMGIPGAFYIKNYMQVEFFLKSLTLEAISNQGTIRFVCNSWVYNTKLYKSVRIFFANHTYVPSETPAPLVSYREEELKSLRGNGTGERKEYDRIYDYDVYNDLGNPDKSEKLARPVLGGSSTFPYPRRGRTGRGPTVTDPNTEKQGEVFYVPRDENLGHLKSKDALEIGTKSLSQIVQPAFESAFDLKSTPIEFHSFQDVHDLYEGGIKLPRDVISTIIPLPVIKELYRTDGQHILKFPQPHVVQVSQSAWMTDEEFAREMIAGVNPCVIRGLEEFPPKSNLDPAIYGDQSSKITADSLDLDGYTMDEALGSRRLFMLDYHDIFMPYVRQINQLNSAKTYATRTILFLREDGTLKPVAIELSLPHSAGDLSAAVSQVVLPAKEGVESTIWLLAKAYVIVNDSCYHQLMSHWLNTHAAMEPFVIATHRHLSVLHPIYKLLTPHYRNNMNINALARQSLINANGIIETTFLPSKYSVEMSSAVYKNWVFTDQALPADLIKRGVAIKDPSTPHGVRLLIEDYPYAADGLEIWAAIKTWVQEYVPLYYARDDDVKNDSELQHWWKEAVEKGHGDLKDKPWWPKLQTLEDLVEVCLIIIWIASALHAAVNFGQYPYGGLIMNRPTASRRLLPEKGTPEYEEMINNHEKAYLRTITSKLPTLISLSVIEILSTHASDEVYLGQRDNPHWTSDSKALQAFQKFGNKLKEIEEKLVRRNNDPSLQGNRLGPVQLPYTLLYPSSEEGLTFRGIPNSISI
Procedure: Kinetic Isotope Effect Determination. Determination of the kinetic isotope effect (KIE) was similar to that previously published by Holman and coworkers with the following modifications. Lewis et al., J. Am. Chem. Soc. (1994) 116:795-796. Lipoxygenase is added (0.12 nM SLO-1 and 12 nM 15-HLO) to a protio/per-deutero LA mixture (60 mL, 5 μM LA/D-LA), monitored at 234 nm with a P-E Lambda 4 and stopped with an acid quench (5% glacial acetic acid) at less than 5% total LA/D-LA consumption. […] The acidified reaction mixture is extracted with methylene chloride (trimethylphosphite, which quantitatively reduces the labile 13-HPOD, is not needed since both the alcohol and the peroxide have the same elution time). […] (isocratic mobile phase: 74.9% Methanol :25% H2O: 0.1% Acetic acid). […] Lewis et al., supra. […] When the percent conversion (f) to product is less than 5%, this equation simplifies to ([[…]]), where [P-H] is protio-product concentration and [So-H] is the initial protio-substrate concentration. […] et al., Reaction Rates of Isotopic Molecules (R. E. Krieger Publishing, Florida)(1987). […] Greater substrate ratios than 2:1 were not used due to the expensive nature of the per-deutero substrate. Under these conditions, the upper limit for the KIE is greater than 130 and is limited by the vanishingly small peak area of the per-deutero 13-HPOD peak relative to the negative control. This RP-HPLC based method for determining molar protio/per-deutero 13-HPOD ratios gave results identical (within experimental error) to those obtained by EI-MS. No appreciable side products at any wavelength for 15-HLO or SLO-1 were observed, indicating no reaction branching. The OS titration experiments require 5 μM LA/D-LA to record product ratios. For the 15-HLO experiments (pH 7.5), OS concentrations above 6 μM were not feasible due to large amounts of a white emulsion at the extraction interface which inhibited product recovery. This emulsion was not observed for reactions performed with SLO-1 (pH 9.2). […] All kinetic data reported were measured in triplicate on two distinct days.

[2] = Surface tension measurements (CMC); type: physicochemical
Procedure: Surface Tension Measurements. Buffers were used which correspond to those of the kinetic measurements. Surface tension was measured as described by Harkins et al., using a thin platinum plate (perimeter 2.5 cm) and a Cahn electro-microbalance. Harkins et al., J. Am. Chem. Soc. (1937) 59:2189-2197. Various amounts of surface active agent were added to a 30 ml buffer solution and the surface tension was continuously recorded. After each addition, a sufficiently long period of time (10-30 min.) was allowed to elapse before attaining a steady value of the surface tension. Critical micelle concentration (CMC) values were obtained by plotting the measured surface tensions versus the logarithm of the concentrations of the surface-active agent and recording the intercept of the two straight lines. The point at which a deviation from the straight line, as observed in the surface tension versus log [surface-active agent] plot, was defined as the start of pre-micellular aggregate formation. Harkins et al., supra; Verhagen et al., Chem. Phys. Lipids (1978) 22:255-259.

SLO-1 [3] = molecular target: T1, SLO-1; test: Steady state kinetics / inhibition studies, SLO-1; type: biochemical, soybean
Procedure: Steady State Kinetics. Lipoxygenase rates were determined by following the formation of product at 234 nm (ε=25,000 M^−1cm^−1) with a Hewlett-Packard 8453 UV-vis spectrophotometer. The destruction of 13-HPOD by the diode array spectrophotometer were negligible under these reaction conditions. All reactions were 2 ml in volume, run at room temperature (23° C.) and constantly stirred with a rotating magnetic bar. In experiments using SLO-1, kinetic reactions were performed in 0.1 M borate (pH 9.2), while reactions using 15-HLO were performed in 25 mM HEPES (pH 7.5). Substrate solutions used in each experiment were measured for accurate LA concentration by quantitatively converting substrate to product using soybean lipoxygenase-1. Enzymatic rates were measured between 1-50 μM LA with 1-25 μM OS for SLO-1 and lower than 2 μM LA for 15-HLO. Solutions containing LA and/or OS were sonicated for 3-5 minutes before use in kinetic experiments. Rate reactions were initiated by the addition of enzyme to final concentrations of 3 nM SLO-1 (80% iron content) and 200 nM 15-HLO (15% iron content). All kinetic parameters were determined by non-linear regression using Kaleidagraph software (Abelbeck).

15-HLO = molecular target: T2, 15-HLO (Homo sapiens, UniProt P16050); test: Kinetic isotope effect (KIE) titration, 15-HLO; type: biochemical
T2 construct: made in house
T2 sequence (P16050 1-662): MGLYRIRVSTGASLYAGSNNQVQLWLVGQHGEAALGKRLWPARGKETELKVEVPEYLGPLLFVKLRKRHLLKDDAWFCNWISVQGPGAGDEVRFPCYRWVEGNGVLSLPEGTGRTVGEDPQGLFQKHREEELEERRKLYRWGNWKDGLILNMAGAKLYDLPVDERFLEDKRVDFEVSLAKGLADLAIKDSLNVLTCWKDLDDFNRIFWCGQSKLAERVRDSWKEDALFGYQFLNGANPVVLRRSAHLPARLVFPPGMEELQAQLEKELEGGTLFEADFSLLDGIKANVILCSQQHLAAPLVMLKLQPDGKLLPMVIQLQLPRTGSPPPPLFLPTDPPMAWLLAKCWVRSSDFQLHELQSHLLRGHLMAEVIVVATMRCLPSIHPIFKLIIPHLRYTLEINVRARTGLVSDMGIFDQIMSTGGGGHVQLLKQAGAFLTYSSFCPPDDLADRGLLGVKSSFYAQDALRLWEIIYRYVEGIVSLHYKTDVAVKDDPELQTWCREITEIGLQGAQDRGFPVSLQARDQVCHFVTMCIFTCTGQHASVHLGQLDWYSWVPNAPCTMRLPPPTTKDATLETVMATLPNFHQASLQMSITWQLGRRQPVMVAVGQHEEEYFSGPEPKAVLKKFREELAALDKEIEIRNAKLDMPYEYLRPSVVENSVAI
Procedure: Kinetic Isotope Effect Determination. Determination of the kinetic isotope effect (KIE) was similar to that previously published by Holman and coworkers with the following modifications. Lewis et al., J. Am. Chem. Soc. (1994) 116:795-796. Lipoxygenase is added (0.12 nM SLO-1 and 12 nM 15-HLO) to a protio/per-deutero LA mixture (60 mL, 5 μM LA/D-LA), monitored at 234 nm with a P-E Lambda 4 and stopped with an acid quench (5% glacial acetic acid) at less than 5% total LA/D-LA consumption. It is important to note that diode array spectrophotometers degrade 13-hydroperoxy-9,11-(Z,E)-octadecadienoic acid (13-HPOD) and care should be taken if the reaction time length is longer than 5 minutes. The acidified reaction mixture is extracted with methylene chloride (trimethylphosphite, which quantitatively reduces the labile 13-HPOD, is not needed since both the alcohol and the peroxide have the same elution time). The methylene chloride layer is evaporated to dryness under vacuum, reconstituted in 50 μL running buffer, injected onto a C18 column (Higgins Analytical, 5 micron, 250×4.6 mm), and eluted at 1 mL/min. (isocratic mobile phase: 74.9% Methanol :25% H2O: 0.1% Acetic acid). […] All kinetic data reported were measured in triplicate on two distinct days.

- effect on KIE (SLO-1 [1]; control for non-specific surfactant binding): no increase in the KIE
Structure (SMILES): CCCCCCCCCCCCOS(=O)(=O)[O-].[Na+] [SDS]

- Kd (SLO-1 [1]): 36000 ± 14000 nM
Structure (SMILES): CCCCCCCC/C=C\CCCCCCCC(=O)O [OA, oleic acid]

- CMC ([2]; 25 mM HEPES (pH 7.5)): 40 ± 10 µM
- CMC ([2]; 0.1 M borate (pH 9.2)): 150 ± 10 µM
- Kd (SLO-1 [3]; SLO-1, no appreciable substrate inhibition below 30 μM LA, read-out: KD (allosteric site)): > 30000 nM
Structure (SMILES): CCCCC/C=C\C/C=C\CCCCCCCC(=O)O [LA, Linoleic Acid]

- Kd (15-HLO; 5 μM LA/D-LA, pH 7.5, read-out: KD from hyperbolic fit of KIE): 400 ± 50 nM
- Kd (15-HLO; conclusion, unit inferred, read-out: KD): 450 ± 50 nM
- Kd (SLO-1 [1]): 600 ± 200 nM
- lessens the rate of catalysis (k2 decreases) (SLO-1 [3]; SLO-1): 15%
- Ki (SLO-1 [3]; fit to Km (app) saturation curve, Eq. 3, read-out: Ki): 450 ± 160 nM
- Ki (SLO-1 [3]; fit to kcat/Km data, Eq. 4, β approximated 0.85, read-out: Ki): 860 ± 110 nM
- Ki (SLO-1 [3]; simulation Scheme 3, Eqs. 7 and 8, read-out: Kii (catalytic site), minimal value): ≥ 100000 nM
Structure (SMILES): CCCCCCCC/C=C\CCCCCCCCOS(=O)(=O)O [OS, (Z)-9-octadecenyl sulfate]
